Experiment [1] relates to spatial long-term memory in PKMζ-null mice. Put plainly: Active place avoidance, intrahippocampal injection, PKMζ-null mice. It counts as in vivo, mouse. The following applies: 5 nmol in 0.5 μl per hippocampus 1 day after conditioning, tested 2 days post-injection. The protocol: (§1) For spatial long-term memory experiments, we adapted the approach used in Garcia-Osta et al. (82). Mice were ˜12-weeks old at surgery. Briefly, to implant the injection cannula hardware, mice were anesthetized by an intraperitoneal (i.p.) injection of a mixture of dexmedetomidine ([…] body weight) and ketamine (28 mg/kg body weight), and mounted in a Kopf stereotaxic frame (Tujunga, CA). The tips of guide cannula (Plastics One, Roanoke, VA; Part Numbers: C235GS-5-2.0) were targeted above the injection target in the dorsal hippocampus (AP-1.94 mm; ML±1.00 mm; DV-0.90 mm). The other injection hardware (Part Numbers: C235DCs-5, 303DC/1; cannula dummy, cannula cap, respectively) was assembled, and antisedan (0.65 mg/kg body weight i.p.) was administered to reverse the sedation at the end of surgery.
Three to four weeks after surgery, the animals received active place avoidance training. […]
Active place avoidance was conducted with a commercial computer-controlled system (Bio-Signal Group, Acton, MA). […] Every 33 ms, the software determined the mouse's position, whether it was in the shock zone, and whether to deliver shock. […]
The tracked animal positions with timestamps were analyzed offline (TrackAnalysis, Bio-Signal Group, Acton, MA) to extract several end-point measures. […]

For another experiment, the system named is spatial long-term memory. In words: Active place avoidance, intrahippocampal injection, wild-type mice. It counts as in vivo, mouse. The following applies: for spatial memory retention (time to first enter shock zone), 3-day memory: 5 nmol in 0.5 μl per hippocampus 1 day after conditioning; for learning and retention of a new memory (place avoidance in Context B): conditioned 2 days after injection, retention 3 days later. How it is done:
as §1
Three to four weeks after surgery, the animals received active place avoidance training. Before testing the effect of the drug injection on place avoidance, the animals received a bilateral injection of vehicle (PBS [pH 7.4] 0.5 μl/side) and were left in the home cage to habituate to the procedure. Depending on the experimental design, injection of vehicle or drug, either ζ-stat or K-ZAP (5 nmol in 0.5 μl PBS/side), is 1 day or 4 weeks after the training session. During the injection, the animals were restrained, the cannula cap and dummy removed, and the injection needle (Plastics One, Roanoke, VA; Part Numbers: C235IS-5) inserted into the guide cannula so that it protruded from the end of the guide by 0.5 mm. The other end of the needle was connected to a 10 μl Hamilton syringe via Tygon tubing. The drug or vehicle was infused for 1 min, and after the infusion the needle was left in place for 5 min before removal. The animals were then returned to their home cages until the memory retention tests that were conducted 2 days later.
Active place avoidance was conducted with a commercial computer-controlled system (Bio-Signal Group, Acton, MA). The mouse was placed on a 40-cm diameter circular arena rotating at 1 rpm. The specialized software, Tracker (Bio-Signal Group, Acton, MA), was used to detect the animal's position 30 times per second by video tracking from an overhead camera. A clear wall made from polyethylene terephthalate glycol-modified (PET-G) was placed on the arena to prevent the animal from jumping off the elevated arena surface. A 5-pole shock grid was placed on the rotating arena, and the shock was scrambled across the 5-poles when the mouse entered the shock zone. All experiments used the “Room+Arena−” task variant that challenges the mouse on the rotating arena to avoid a shock zone that was a stationary 60° sector (7). Every 33 ms, the software determined the mouse's position, whether it was in the shock zone, and whether to deliver shock. After the animal enters the shock zone for 500 ms, a constant current foot-shock (60 Hz, 500 ms) was delivered and repeated with the interval of 1500 ms until the mouse left the shock zone. The shock intensity was 0.2 or 0.3 mA, which was the minimum amplitude to elicit flinch or escape responses. The animal was forced to actively avoid the designated shock zone because the arena rotation periodically transported it into the shock area.
The tracked animal positions with timestamps were analyzed offline (TrackAnalysis, Bio-Signal Group, Acton, MA) to extract several end-point measures. The time to first enter the shock zone estimates ability to avoid shock and was taken as an index of between-session memory. The number of entrances within one trial was taken as another index to examine the animal learning curve throughout all training trials. A pretraining habituation period on the apparatus equivalent in time to a training session, but without shock, was provided.
The training schedule was as follows: 2 h after a 30-min pretraining habituation, the animals received three 30-min training trials, with an intertrial interval of 2 h. […]

“Also recorded” adds a separate entry of the source. Where no end group is shown, it is not given here. The star is where a group is joined. Myristoyl = CCCCCCCCCCCCCC(=O)*

Take “myr-N-FVRNSLERRSVRMKRPS-C (Myristoyl-FVRNSLERRSVRMKRPS) [K-ZAP]”: the “spatial memory retention (time to first enter shock zone), 3-day memory” value in experiment [1] is “has no effect on memory retention; also recorded: intact memory retention”; in the experiment on spatial long-term memory (tested 2 days post-injection), “disrupts established spatial long-term memory retention; also recorded: loss of memory retention”. Also, the “remote spatial memory retention, 30-day memory” value in the experiment on spatial long-term memory (5 nmol in 0.5 μl/side injected 4 weeks after training, tested 2 days post-injection) was “disrupts remote spatial memory; also recorded: loss of memory retention 30 days post-training”.
With `O=S(=O)(O)c1cc(O)c2c(S(=O)(=O)O)cc(S(=O)(=O)O)cc2c1` [ζ-stat, 1-naphthol-3,6,8-trisulphonic acid], the “spatial memory retention (time to first enter shock zone), 3-day memory” value in experiment [1] is “avoided the shock zone as well as those that had received vehicle; also recorded: not different than vehicle”; in the experiment with spatial long-term memory (tested 2 days post-injection) it was “persistent loss of retention”; in the experiment on spatial long-term memory (tested 2 days post-injection, listed as z-stat) it was “disrupts spatial memory retention; also recorded: disrupt memory retention for the established memory”. The “learning and retention of a new memory (place avoidance in Context B)” value in the experiment on spatial long-term memory is “learn to avoid and remember a new second location as well as the mice that had received only vehicle”; with spatial long-term memory (listed as z-stat), “do not disrupt learning or retention of a new memory”.
